Laboratory results reported in patent publication US8980848B2, “Flavonoid dimers and their use” (The Hong Kong Polytechnic University, priority 2010, dated 2015).

Legend:
[1] = Cytotoxicity of flavonoid dimers, L929 mouse fibroblast; type: cell-based; conditions: mouse, IC50 of compound alone, 72 hrs, mouse fibroblast
Procedure: (§1) (b) Tumor Cell Line Cytotoxicity. The tumor cytotoxicity assays of flavonoid dimers were performed against LCC6, LCC6MDR and L929 cell lines. […] In brief, LCC6, LCC6MDR and L929 cells were seeded into 96-well flat bottom microtiter plate at 1×10^4 cells per well in a final volume of 100 μL media, respectively. A graded dose of flavonoid dimers was added into wells. The plate was incubated at 37° C. for 72 hrs at the atmosphere 5% CO2 in the air. The % of survivors was determined.

[2] = Tumor cell line cytotoxicity of flavonoid dimers, LCC6; type: cell-based, human; conditions: human, IC50 of compound alone
Procedure: as §1

Pgp (LCC6MDR cells) = Pgp (LCC6MDR cells) (Homo sapiens, UniProt P08183); assay: Cell proliferation assay: Pgp-modulating activity, reversal of anticancer drug resistance in LCC6MDR cells; conditions: for EC50: EC50 of compounds for reversing anticancer drug resistance (nM); for EC50 / RF (Relative Fold), cpd at 0.5 μM / RF (Relative Fold), cpd at 1 μM: LCC6MDR; for Therapeutic index: IC50 of compounds for L929/EC50 of compounds for lowering paclitaxel drug resistance; for RF (Relative Fold), cpd at 0.5 μM: RF = (IC50 without modulator)/(IC50 with 0.5 μM modulator); for RF (Relative Fold), cpd at 0.5 μM / RF (Relative Fold), cpd at 1 μM: paclitaxel; for RF (Relative Fold), cpd at 1 μM: RF = (IC50 without modulator)/(IC50 with 1.0 μM modulator)
Pgp (LCC6MDR cells), sequence (P08183 whole entry): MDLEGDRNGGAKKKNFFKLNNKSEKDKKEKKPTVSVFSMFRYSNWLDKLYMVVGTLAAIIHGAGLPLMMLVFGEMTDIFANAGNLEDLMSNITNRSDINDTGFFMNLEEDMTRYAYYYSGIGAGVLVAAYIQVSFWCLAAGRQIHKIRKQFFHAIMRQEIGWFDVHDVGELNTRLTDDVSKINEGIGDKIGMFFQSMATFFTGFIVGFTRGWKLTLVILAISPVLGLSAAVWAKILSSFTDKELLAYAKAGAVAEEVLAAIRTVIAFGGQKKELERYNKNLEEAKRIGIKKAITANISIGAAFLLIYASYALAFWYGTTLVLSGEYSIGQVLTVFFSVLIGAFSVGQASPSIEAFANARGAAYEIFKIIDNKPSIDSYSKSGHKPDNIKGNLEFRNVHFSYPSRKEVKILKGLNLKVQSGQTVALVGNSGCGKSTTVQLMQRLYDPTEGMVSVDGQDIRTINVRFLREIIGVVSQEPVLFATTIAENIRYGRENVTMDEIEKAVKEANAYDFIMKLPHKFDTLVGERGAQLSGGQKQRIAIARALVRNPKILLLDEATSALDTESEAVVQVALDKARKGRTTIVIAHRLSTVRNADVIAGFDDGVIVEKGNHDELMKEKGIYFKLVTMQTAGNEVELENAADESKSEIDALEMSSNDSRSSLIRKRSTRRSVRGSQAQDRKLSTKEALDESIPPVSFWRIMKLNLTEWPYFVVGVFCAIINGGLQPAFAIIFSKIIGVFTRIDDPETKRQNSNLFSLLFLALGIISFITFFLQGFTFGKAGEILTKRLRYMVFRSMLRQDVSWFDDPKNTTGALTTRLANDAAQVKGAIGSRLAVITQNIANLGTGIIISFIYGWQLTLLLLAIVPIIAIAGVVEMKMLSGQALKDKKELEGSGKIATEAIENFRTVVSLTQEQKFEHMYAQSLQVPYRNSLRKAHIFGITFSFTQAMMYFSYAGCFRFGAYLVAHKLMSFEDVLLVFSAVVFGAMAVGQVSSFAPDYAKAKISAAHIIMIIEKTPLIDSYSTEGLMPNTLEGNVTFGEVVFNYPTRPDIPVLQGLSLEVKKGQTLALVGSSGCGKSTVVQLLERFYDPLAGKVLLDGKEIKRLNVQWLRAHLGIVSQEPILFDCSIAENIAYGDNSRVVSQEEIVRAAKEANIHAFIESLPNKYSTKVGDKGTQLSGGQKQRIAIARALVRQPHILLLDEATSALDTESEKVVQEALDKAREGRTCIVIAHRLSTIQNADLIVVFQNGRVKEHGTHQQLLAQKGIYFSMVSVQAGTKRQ
Procedure: Cell Proliferation Assay. 6,000 cells of LCC6 or LCC6MDR and anticancer drugs (paclitaxel, vinblastine, vincristine, doxorubicin and mitoxantrone) were mixed with or without modulators to a final volume of 200 μL in each well of 96-well plates. […] The plates were then incubated for 5 days at 37° C. […] IC50 values were calculated from the dose-response curves of MTS assays (Prism 4.0).

[3] = Tumor cell line cytotoxicity of flavonoid dimers, LCC6MDR; type: cell-based, human; conditions: human, IC50 of compound alone
Procedure: as §1

EC50 (Pgp (LCC6MDR cells); Paclitaxel)	EC50 (Pgp (LCC6MDR cells); Daunorubicin)	EC50 (Pgp (LCC6MDR cells); Doxorubicin)	EC50 (Pgp (LCC6MDR cells); Vinblasinte, vinblastine)	EC50 (Pgp (LCC6MDR cells); Vincristine)	SMILES	IC50 at 72 h ([1]; L929 fibroblast cells)	IC50 at 72 h ([2]; LCC6 cells)	Therapeutic index (Pgp (LCC6MDR cells))	RF (Relative Fold), cpd at 0.5 μM (Pgp (LCC6MDR cells))	IC50 at 72 h ([3]; LCC6MDR cells)	EC50 (Pgp (LCC6MDR cells); Mitoxantrone)	RF (Relative Fold), cpd at 1 μM (Pgp (LCC6MDR cells))	IC50 at 72 h [1]	IC50 at 72 h [2]	IC50 at 72 h [3]
150 nM	–	–	–	–	O=c1cc(-c2ccc(OCCOCCN(CCOCCOc3ccc(-c4cc(=O)c5ccccc5o4)cc3)Cc3ccc(C(F)(F)F)cc3)cc2)oc2ccccc12 [Compound 35, 1,13-Bis[4′-(4H-chromen-4-on-2-yl)phenyl]-7-(4-trifluoromethylbenzyl)-1,4,10,13-tetraoxa-7-azamidecane]	32.7 µM	> 100 µM	218.0	(37.3)	> 100 µM	–	–	–	–	–
–	–	–	–	–	COc1cc(-c2cc(=O)c3ccccc3o2)ccc1OCCOCCN(CCOCCOc1ccc(-c2cc(=O)c3ccccc3o2)cc1OC)C(=O)OC(C)(C)C [Compound 16b, 1,13-Bis[4′-((4H-chromen-4-on-2-yl)-3′-methoxyphenyl)]-7-(tert-butylformyl)-1,4,10,13-tetraoxa-7-azamidecane]	33.3 µM	8.3 ± 1.4 µM	–	(8.7)	6.9 ± 2.9 µM	–	–	–	–	–
104 ± 7 nM	61 ± 6 nM	63 ± 8 nM	94 ± 13 nM	98 ± 5 nM	COc1ccc(CN(CCOCCOc2ccc(-c3cc(=O)c4ccccc4o3)cc2)CCOCCOc2ccc(-c3cc(=O)c4ccccc4o3)cc2)cc1 [Compound 42a, 1,13-Bis[4′-(4H-chromen-4-on-2-yl)phenyl]-7-(4-methoxybenzyl)-1,4,10,13-tetraoxa-7-azamidecane]	> 100 µM	> 91 µM	>961.5	(61.2)	> 100 µM	96 ± 27 nM	(117.8)	–	–	–
244 nM	–	–	–	–	Nc1ccc(CN(CCOCCOc2ccc(-c3cc(=O)c4ccccc4o3)cc2)CCOCCOc2ccc(-c3cc(=O)c4ccccc4o3)cc2)cc1 [Compound 55, 1,13-Bis[4′-(4H-chromen-4-on-2-yl)phenyl]-7-(4-aminobenzyl)-1,4,10,13-tetraoxa-7-azamidecane]	> 50 µM	> 50 µM	204.9	(8.8)	> 50 µM	–	(72.9)	–	–	–
–	–	–	–	–	COc1cc(CN(CCOCCOc2ccc(-c3cc(=O)c4ccccc4o3)cc2)CCOCCOc2ccc(-c3cc(=O)c4ccccc4o3)cc2)cc(OC)c1 [Compound 44, 1,13-Bis[4′-(4H-chromen-4-on-2-yl)phenyl]-7-(3,5-dimethoxybenzyl)-1,4,10,13-tetraoxa-7-azamidecane]	> 100 µM	> 100 µM	–	(19.1)	> 100 µM	–	(51.0)	–	–	–
237 ± 91 nM	–	–	–	–	O=c1cc(-c2ccc(OCCOCCN(CCOCCOc3ccc(-c4cc(=O)c5ccccc5o4)cc3)Cc3c(F)cccc3F)cc2)oc2ccccc12 [Compound 41, 1,13-Bis[4′-(4H-chromen-4-on-2-yl)phenyl]-7-(2,6-difluorobenzyl)-1,4,10,13-tetraoxa-7-azamidecane]	> 100 µM	> 100 µM	>421.9	(34.0)	> 100 µM	–	(90.1)	–	–	–
–	–	–	–	–	O=c1cc(-c2ccc(OCCOCCN(CCOCCOc3ccc(-c4cc(=O)c5ccccc5o4)cc3)Cc3cccnc3)cc2)oc2ccccc12 [Compound 64a, 1,13-Bis[4′-(4H-chromen-4-on-2-yl)phenyl]-7-(3-pyridylmethyl)-1,4,10,13-tetraoxa-7-azamidecane]	2.3 ± 0.2 µM	5.7 ± 1.4 µM	–	(8.5)	4.7 ± 0.2 µM	–	(46.4)	–	–	–
–	–	–	–	–	O=c1cc(-c2ccc(OCCOCCN(CCOCCOc3ccc(-c4cc(=O)c5ccccc5o4)cc3)Cc3ccncn3)cc2)oc2ccccc12 [Compound 64e, 1,13-Bis[4′-(4H-chromen-4-on-2-yl)phenyl]-7-(4-pyrimidinylmethyl)-1,4,10,13-tetraoxa-7-azamidecane]	> 50 µM	> 50 µM	–	(8.3)	> 50 µM	–	(61.2)	–	–	–
–	–	–	–	–	COc1cccc(CN(CCOCCOc2ccc(-c3cc(=O)c4ccccc4o3)cc2)CCOCCOc2ccc(-c3cc(=O)c4ccccc4o3)cc2)c1 [Compound 43, 1,13-Bis[4′-(4H-chromen-4-on-2-yl)phenyl]-7-(3-methoxybenzyl)-1,4,10,13-tetraoxa-7-azamidecane]	> 100 µM	> 100 µM	–	(22.5)	> 100 µM	–	(95.7)	–	–	–
141 ± 9 nM	–	–	–	–	O=c1cc(-c2ccc(OCCOCCN(CCOCCOc3ccc(-c4cc(=O)c5ccccc5o4)cc3)Cc3ccc(O)cc3)cc2)oc2ccccc12 [Compound 42d, 1,13-Bis[4′-(4H-chromen-4-on-2-yl)phenyl]-7-(4-hydroxybenzyl)-1,4,10,13-tetraoxa-7-azamidecane]	4.8 ± 0.3 µM	5.4 ± 0.6 µM	34.0	(117.8)	5.3 ± 0.7 µM	–	(117.8)	–	–	–
–	–	–	–	–	Cc1ccc(CN(CCOCCOc2ccc(-c3cc(=O)c4ccccc4o3)cc2)CCOCCOc2ccc(-c3cc(=O)c4ccccc4o3)cc2)cc1 [Compound 47, 1,13-Bis[4′-(4H-chromen-4-on-2-yl)phenyl]-7-(4-methylbenzyl)-1,4,10,13-tetraoxa-7-azamidecane]	66.4 ± 16.8 µM	> 100 µM	–	(31.2)	> 81 µM	–	(109.4)	–	–	–
–	–	–	–	–	O=c1cc(-c2ccc(OCCOCCN(CCOCCOc3ccc(-c4cc(=O)c5ccccc5o4)cc3)Cc3ccnc4ccccc34)cc2)oc2ccccc12 [Compound 64f, 1,13-Bis[4′-(4H-chromen-4-on-2-yl)phenyl]-7-(4-quinolinylmethyl)-1,4,10,13-tetraoxa-7-azamidecane]	> 100 µM	> 100 µM	–	(15.9)	> 100 µM	–	(69.6)	–	–	–
–	–	–	–	–	N#Cc1cc(CN(CCOCCOc2ccc(-c3cc(=O)c4ccccc4o3)cc2)CCOCCOc2ccc(-c3cc(=O)c4ccccc4o3)cc2)ccn1 [Compound 64c, 1,13-Bis[4′-(4H-chromen-4-on-2-yl)phenyl]-7-(4-(2-cyanopyridyl)methyl)-1,4,10,13-tetraoxa-7-azamidecane]	> 50 µM	> 100 µM	–	(19.4)	> 100 µM	–	(66.6)	–	–	–
188 nM	–	–	–	–	CC(C)(C)OC(=O)Nc1ccc(CN(CCOCCOc2ccc(-c3cc(=O)c4ccccc4o3)cc2)CCOCCOc2ccc(-c3cc(=O)c4ccccc4o3)cc2)cc1 [Compound 54, 1,13-Bis[4′-(4H-chromen-4-on-2-yl)phenyl]-7-(4-tert-butyloxycarbonylanimobenzyl)-1,4,10,13-tetraoxa-7-azamidecane]	> 50 µM	> 50 µM	266.0	(45.0)	> 50 µM	–	(95.7)	–	–	–
–	–	–	–	–	C/C=C/C[C@@H](C)C(=O)[C@H]1C(=O)N[C@@H](C(C)C)C(=O)N(C)CC(=O)N(C)[C@@H](CC(C)C)C(=O)N[C@@H](C(C)C)C(=O)N(C)[C@@H](CC(C)C)C(=O)N[C@@H](C)C(=O)N[C@H](C)C(=O)N(C)[C@@H](CC(C)C)C(=O)N(C)[C@@H](CC(C)C)C(=O)N(C)[C@@H](C(C)C)C(=O)N1C [PSC833, reference compound]	–	–	–	–	–	–	–	> 100 µM	25.3 ± 4.3 µM	14.6 ± 2.2 µM
–	–	–	–	–	C[C@H](N)C(=O)N(CCOCCOc1ccc(-c2cc(=O)c3ccccc3o2)cc1)CCOCCOc1ccc(-c2cc(=O)c3ccccc3o2)cc1 [Compound 23b, 1,13-Bis[4′-(4H-chromen-4-on-2-yl)phenyl]-7-[(S)-2-amino-1-oxopropyl]-1,4,10,13-tetraoxa-7-azamidecane]	–	4.4 µM	–	(1.0)	4.6 ± 0.2 µM	–	–	–	–	–
–	–	–	–	–	COc1cccc2oc(-c3ccc(OCCOCCNCCOCCOc4ccc(-c5cc(=O)c6c(OC)cccc6o5)cc4)cc3)cc(=O)c12 [Compound 12d, 1,13-Bis[4′-((5-methoxy)-4H-chromen-4-on-2-yl)phenyl]-1,4,10,13-tetraoxa-7-azamidecane]	–	8.8 ± 2.7 µM	–	(1.2)	10.2 ± 3.8 µM	–	–	–	–	–
–	–	–	–	–	COc1cc(-c2cc(=O)c3ccccc3o2)ccc1OCCOCCNCCOCCOc1ccc(-c2cc(=O)c3ccccc3o2)cc1OC [Compound 12b, 1,13-Bis[4′-((4H-chromen-4-on-2-yl)-3′-methoxyphenyl)]-1,4,10,13-tetraoxa-7-azamidecane]	–	12.8 ± 1.1 µM	–	(0.8)	23.8 ± 12.8 µM	–	–	–	–	–
